“Also recorded” adds a separate entry of the source.
Key:
[1] = system: HCT-116 Luc+ tumors; experiment: mouse xenograft model, tumor growth; assay type: in vivo; details: 200 mg/kg/day, twice daily, ip; Balb C nude mice
Procedure: A mouse xenograft model was used to evaluate the efficacy of N3PT in modulating tumor growth. Cancer cells (HCT-116 Luc+, comprising a stably transfected luciferase gene) were injected subcutaneously (10^6 cells) into Balb C nude mice on both flanks on day 7 prior to treatment. Tumors were allowed to grow to palpable size from test day 0, defined as the start of a treatment regime. N3PT was injected ip (intraperitoneally) at a given regimen (e.g., 200 mg/kg/day) and tumor size monitored by luminance intensity from day 0-7, caliper measurement after day 7, and by weight at the end of study, after the animals were sacrificed. See, e.g., Wang and El-Deiry, Cancer Biol Ther. 2(2):196-202 (2003); Ray et al., Cancer Res. 63(6):1160-5 (2003); see also, e.g., U.S. Pat. Nos. 6,416,960; 6,596,257; and 6,217,847.

[2] = system: K562; experiment: inhibition of proliferation of K562 cells; assay type: cell-based; details: K562 CML line
Procedure: The ability of N3PT to inhibit proliferation of these cell lines was then tested. LAMA84 was the most sensitive to N3PT, displaying an IC50 of 0.3 μM. The other cell lines, HCT116 and K562, were less sensitive, displaying an IC50 of approximately 2 μM in both cases. LAMA84 also had the highest TK activity (per cell) among these three cancer lines.

SMILES: Cc1ccc(C[n+]2csc(CCO)c2C)c(N)n1 [N3PT, 3-[(2-amino-6-methyl-3-pyridinyl)methyl]-5-(2-hydroxyethyl)-4-methyl thiazolium]
- growth of explant tumors [1]: inhibits growth of tumors in vivo; also recorded: inhibited the growth of explant tumors
- IC50 [2]: ~2 µM
